# Values quoted from earlier work, collected in US10689308B2, “Solvent for thiophosphoric triamide or dicyandiamide solutions, and related methods” (RHODIA OPERATIONS, priority 2014, dated 2020).
# Details: dicyandiamide in a solid form; background statement
smiles,measurement,value
N#CNC(=N)N [Dicyandiamide],solubility in water,about 41 grams per liter
